Reference: patent US5314910A, “Ester inhibitors” (Cortech Inc., priority 1993, dated 1994)

Tests used:
[1] = target: T1, human neutrophil elastase (HNE) (Homo sapiens, UniProt P08246); assay: Potency (I50 Determination), HNE inhibition; assay type: biochemical; conditions: substrate N-methoxysuccinyl-ala-ala-pro-val-pNA, pH 7.7, 7 minutes incubation at room temperature, 405 nm
T1 sequence (P08246 30-267): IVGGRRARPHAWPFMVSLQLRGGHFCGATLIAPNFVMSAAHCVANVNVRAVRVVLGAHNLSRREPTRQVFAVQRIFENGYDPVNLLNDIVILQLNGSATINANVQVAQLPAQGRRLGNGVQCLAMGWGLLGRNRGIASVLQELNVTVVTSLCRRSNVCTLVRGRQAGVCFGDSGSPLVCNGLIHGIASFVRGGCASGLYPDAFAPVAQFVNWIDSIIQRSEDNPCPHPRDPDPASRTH
Description: Potency (I50 Determination)
A) 0.075 M sodium phosphate, 20% dimethyl sulfoxide (DMSO), pH 7.7=substrate and inhibitor buffer
B) 0.075 M sodium phosphate, no DMSO, pH 7.7=inhibitor buffer
C) 10 mM human neutrophil elastase (HNE) substrate=N-methoxysuccinyl-ala-ala-pro-val-pNA in DMSO
D) 0.01 M sodium acetate, 20% DMSO, pH 5.5=enzyme buffer (dilution)
E) 0.01 M sodium acetate, pH 5.5 enzyme buffer (storage)
F) HNE (1 mg) dissolved in 1 ML of reagent E for storage at -20° C.
Make a 10 mM stock of the inhibitor in DMSO. Dilute an aliquot (10 μL) up to 1.0 mL in reagent A (100 μM). Serially dilute 100 μL of the 100 μM stock to […], 1.0, 0.1, 0.01 μM in reagent A. Apply 100 μL of the diluted material to the wells of a 96-well plate. Dilute an aliquot of reagent F 1:150 in reagent D, apply 50 μL aliquots to the indicated wells and incubate for 7 minutes at room temperature.
The HNE substrate solution is made by taking 100 μL of reagent C into 500 μL of reagent A and 400 μL of reagent B. After the 7 minutes of incubation, the substrate (50 μL) is applied to each well. The HNE catalyzed reaction is then monitored spectrophotometrically at 405 nm using an ELISA plate reader machine (UVMAX, Molecular Devices) which processes the raw data with an on-board kinetics program. The enzyme activity is plotted against different inhibitor concentrations and the […] is determined by using a curve fitting software program. Once the "screening" I50 has been approximated, a more precise I50 value can be obtained by examination of inhibitor concentrations around this value.

[2] = test system: ischemia reperfusion injuries (myocardial infarct size); assay: Ischemia reperfusion injury in dogs, myocardial infarct size; assay type: in vivo, dog
Description: Experiments have been conducted on dogs to study the effect of the compounds of the invention in the treatment of ischemia reperfusion injuries.
The protocol used in the experiment referred to in the preceding paragraph involved the following:
Male mongrel dogs (13 to 17 kg) were anesthetized with sodium pentobarbital, 30 mg/kg i.v., intubated and ventilated with room air via a Harvard respirator. Lead II of the electrocardiogram and hemodynamics were monitored continuously throughout the course of the experiment. A catheter was inserted into the left carotid artery and advanced into the left ventricle for the continuous recording of left ventricular pressure. […] After 24 hr of reperfusion, the animal was reanesthetized, the thoracotomy incision opened, the heart fibrillated electrically and removed rapidly for postmortem quantification of infarct size.
Animals were randomized to receive either the test compound or a placebo (diluent) administered as an intracoronary infusion via a catheter inserted into the left circumflex coronary artery just distal to the point at which the vessel is occluded. The dose was determined on the basis of known pharmacokinetic data and the infusion was maintained throughout the 90 period of regional ischemia as well as during the 24 hour reperfusion period. […]

CCC(C(=O)Oc1ccc([S+](C)[O-])cc1)c1ccoc1 (centres unmarked) [Compound 2]
IC50 [1]: 1440 nM

CCC(C(=O)Oc1ccc([S+](C)[O-])cc1)c1cccn1C (centres unmarked) [Compound 16, 4-Methylsulfinylphenyl 2-(1-Methyl-2-pyrrole)butyrate]
IC50 [1]: 460 nM
reduction in infarct size compared to the controls (in words) [2]: significant reduction in infarct size

CCC(C(=O)Oc1ccc(S(C)(=O)=O)cc1)c1ccoc1 (centres unmarked) [Compound 3]
IC50 [1]: 470 nM

CCC(C(=O)Oc1ccc([S+]([O-])CC(C)(C)C(=O)O)cc1)c1cccn1C (centres unmarked) [Compound 20, 4-(2,-Carboxy-2'-methylpropylsulfinyl)phenyl 2-(1-Methyl-2-pyrrole)butyrate]
IC50 [1]: 590 nM

CCC(C(=O)Oc1ccc([N+](=O)[O-])cc1)c1cccn1C (centres unmarked) [Compound 18]
IC50 [1]: 200 nM

CCC(C(=O)Oc1ccc([S+](C)[O-])cc1)c1coc2ccccc12 (centres unmarked) [Compound 5]
IC50 [1]: 420 nM

CCC(C(=O)Oc1ccc(SCC(C)(C)C(=O)O)cc1)c1cccn1C (centres unmarked) [Compound 19, 4-(2'-Carboxy-2'-methylpropylmercapto)phenyl 2-(1-Methyl-2-pyrrole)butyrate]
IC50 [1]: 200 nM

CCC(C(=O)Oc1ccc(SC)cc1)c1ccsc1 (centres unmarked) [Compound 11, 4-Methylmercaptophenyl 2-(3-thiophene)butyrate]
IC50 [1]: 1500 nM

CCC(C(=O)Oc1ccc(S(C)(=O)=O)cc1)c1cccs1 (centres unmarked) [Compound 9]
IC50 [1]: 290 nM

CCC(C(=O)Oc1ccc(SC)cc1)c1coc2ccccc12 (centres unmarked) [Compound 4]
IC50 [1]: 3800 nM

CCC(C(=O)Oc1ccc([S+](C)[O-])cc1)c1c[nH]c2ccccc12 (centres unmarked) [Compound 22]
IC50 [1]: 1900 nM

CCC(C(=O)Oc1ccc([N+](=O)[O-])cc1)c1ccsc1 (centres unmarked) [Compound 14]
IC50 [1]: 120 nM

CCC(C(=O)Oc1ccc(SC)cc1)c1cccs1 (centres unmarked) [Compound 7]
IC50 [1]: 3000 nM

CCC(C(=O)Oc1ccc(S(C)(=O)=O)cc1)c1cccn1C (centres unmarked) [Compound 17, 4-Methylsulfonylphenyl 2-(1-Methyl-2-pyrrole)butyrate]
IC50 [1]: 60 nM

CCC(C(=O)Oc1ccc([N+](=O)[O-])cc1)c1cccs1 (centres unmarked) [Compound 10]
IC50 [1]: 270 nM

CCC(C(=O)Oc1ccc(SC)cc1)c1c[nH]c2ccccc12 (centres unmarked) [Compound 21]
IC50 [1]: 33000 nM

CCC(C(=O)Oc1ccc([S+](C)[O-])cc1)c1ccsc1 (centres unmarked) [Compound 12, 4-Methylsulfinylphenyl 2-(3-thiophene)butyrate]
IC50 [1]: 130 nM

CCC(C(=O)Oc1ccc([S+](C)[O-])cc1)c1cccs1 (centres unmarked) [Compound 8]
IC50 [1]: 430 nM

CCC(C(=O)Oc1ccc(SC)cc1)c1cccn1C (centres unmarked) [Compound 15, 4-Methylmercaptophenyl 2-(1-Methyl-2-pyrrole)butyrate]
IC50 [1]: 6200 nM

CCC(C(=O)Oc1ccc(S(C)(=O)=O)cc1)c1ccsc1 (centres unmarked) [Compound 13, 4-Methylsulfonylphenyl 1-(3-thiophene)butyrate]
IC50 [1]: 50 nM

CCC(C(=O)Oc1ccc(S(C)(=O)=O)cc1)c1coc2ccccc12 (centres unmarked) [Compound 6]
IC50 [1]: 150 nM

CCC(C(=O)Oc1ccc(SC)cc1)c1ccoc1 (centres unmarked) [Compound 1]
IC50 [1]: 6060 nM
